Where “and” joins values, the source holds several entries; their conditions need not be identical. Equal values may be shown once. Where no end group is shown, it is not given here.
What was measured:
B16-F10 cells = assay: Raw material toxicity test: MTT analysis; type: cell-based, mice; conditions: FIG. 3; 12.5 μM, 25 μM and 50 μM, 48 hours
Procedure: B16-F10 cells purchased from the Korean Cell Line Bank were inoculated into 100 μL of a DMEM medium containing 10% FBS at a concentration of 1×10^4 cells/well in a 96-well plate and cultured for 48 hours. B16-F10 cells are a murine melanoma cell line derived from mice. These cells are adherent and have an epithelial morphology. Thereafter, the C2-P4 peptide was diluted in a DMEM culture medium at concentrations of 12.5 μM, 25 μM, and 50 μM to replace the medium, and the cells were cultured for 48 hours. After centrifuging the plate at 1,000 rpm for 10 minutes, the culture medium solution was removed. Each well was washed twice with PBS, and a 0.5 mg/ml MTT solution diluted in a DMEM medium was added thereto. The cells were cultured in an incubator of 37° C. and 5% CO2 for 2 hours. After centrifuging the plate at 1,000 rpm for 10 minutes, the MTT solution was removed. Each well was washed twice with PBS, and 150 μL of DMSO was added to dissolve the produced formazan. The plate was placed in a spectrometer (Spectra MAX i3), and absorbance of the sample in each well was measured at 590 nm.

[1] = Skin irritation test on artificial skin (MTT); type: cell-based; conditions: human, artificial skin (Neoderm-ED, Tegoscience); FIG. 4; 20 μl of 100 μg/ml peptide; 50% or greater = no irritation; read-out: cell viability
Procedure: (§1) 1×PBS and 5% SDS were evenly applied to artificial skin (Neoderm-ED) purchased from Tegoscience (South Korea) to prepare a negative control and a positive control, respectively. An experimental group was evenly coated with 20 μl of 100 μg/ml C2-P4 peptide. After allowing the samples to react at room temperature for 15 minutes, the resultants were each transferred to the wells of a 12-well culture plate and cultured in an incubator of 37° C. and 5% CO2 for 15 minutes. Once the reaction was completed, the artificial skin was washed twice with PBS and transferred to the wells of a new 12-well culture plate and cultured for 42 hours. Once the culture was completed, 2 ml of 0.3 mg/ml MTT solution was added, and the cells were cultured for 3 hours. The sample in each well of the plate was decolorized by adding 0.04 N HCl-isopropanol, and placed in the Spectra MAX i3, and absorbance of the sample in each well was measured at 580 nm.
(§2) FIG. 4 is a graph showing the results of measuring effect of C2-P4 on skin irritation. […] Here, when the cell viability of a sample was 50% or greater, the sample was determined to have no irritation.

[2] = system: artificial skin (Neoderm-ED); assay: Skin irritation test on artificial skin (MTT); type: cell-based; conditions: FIG. 4; 20 μl of 100 μg/ml peptide; 50% or greater viability = no irritation
Procedure: as §1, §2

MITF gene = MITF gene activity by real-time PCR; type: cell-based, mice; conditions: Table 2; three replicates; C2-P4 10 μM, α-MSH 50 nM, 48 hours
Procedure: B16-F10 cells purchased from the Korean Cell Line Bank were inoculated into 3 mL of a DMEM medium containing 10% FBS at a concentration of 1×10^5 cells/well in a 6-well plate and cultured in an incubator of 37° C. and 5% CO2 for 24 hours to form a cell monolayer. The medium in a negative control was replaced with a DMEM medium, and the medium in peptide-treated experimental groups and α-MSH experimental groups was replaced with a medium containing 10 μM of each of the peptides and 50 nM of α-MSH, respectively, and then the cells were cultured for 48 hours. Each of the experimental groups was washed twice with PBS, the cells were obtained with trypsin-EDTA and centrifuged at 1500 rpm for 5 minutes to separate the cells. RNA was extracted from the separated cells using Trizol, and each 1,000 ng of cDNA was synthesized using reverse transcriptase. Using 100 ng of each of the synthesized cDNAs, the expression levels of GAPDH and […] were confirmed using real-time PCR. The primers used for the real-time PCR were SEQ ID NOs: 9 and 10. Alternatively, the polynucleotide sets of SEQ ID NOs: 11 and 12 were used.

Row | Substance | cell viability compared to the negative control (scrambled peptide) (B16-F10 cells) | cytotoxicity (MTT assay) (B16-F10 cells) | viability at 0.5 h, 100 µg/mL [1] | skin irritation [2] | MITF (real-time PCR value) (MITF gene)
1 | RRWRRWNRFNRRRCRRRLQQTQAQVDEVVDIM [C2-P4] | similar | no cytotoxicity | ~85% | no irritation | 
2 | α-MSH |  |  |  |  | 30.05 and 29.98 and 30.17
